Experimental data as given in ChEMBL document CHEMBL1201862, “PubChem BioAssay data set” (2004).
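Interpolation was linear, between the two tested concentrations surrounding the appropriate level; five concentrations were tested over 48 hours in 96-well plates. GI50 is the concentration that inhibits growth by half.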 Active and inactive are the calls of the source. Rule as the data show it: active = GI50 up to about 1.1 µM and inactive = higher.

Experiments:
Assay in all cases: DTP human tumour cell line panel, 48 h
Malme-3M = test system: Malme-3M
MDA-N = test system: MDA-N
SK-MEL-28 = test system: SK-MEL-28
HOP-92 = test system: HOP-92
U-251 = test system: U-251
UACC-257 = test system: UACC-257
MDA-MB-231 = test system: MDA-MB-231
TK-10 = test system: TK-10
NCI-H460 = test system: NCI-H460
HOP-62 = test system: HOP-62
CCRF-CEM = test system: CCRF-CEM
DU-145 = test system: DU-145
HCC 2998 = test system: HCC 2998
RXF 393 = test system: RXF 393
NCI/ADR-RES = test system: NCI/ADR-RES
IGROV-1 = test system: IGROV-1
NCI-H522 = test system: NCI-H522
A498 = test system: A498
SR = test system: SR
MOLT-4 = test system: MOLT-4

Row | SMILES | GI50 (Malme-3M) | GI50 (MDA-N) | GI50 (SK-MEL-28) | GI50 (HOP-92) | GI50 (U-251) | GI50 (UACC-257) | GI50 (MDA-MB-231) | GI50 (TK-10) | GI50 (NCI-H460) | GI50 (HOP-62) | GI50 (CCRF-CEM) | GI50 (DU-145) | GI50 (HCC 2998) | GI50 (RXF 393) | GI50 (NCI/ADR-RES) | GI50 (IGROV-1) | GI50 (NCI-H522) | GI50 (A498) | GI50 (SR) | GI50 (MOLT-4)
1 | CC1=NN(C(=O)c2ccccc2O)C(=O)/C1=C/c1ccc([N+](=O)[O-])cc1 | 0.247 µM (active) | 0.413 µM (active) | 31.6 µM (inactive) | 0.411 µM (active) | 0.0991 µM (active) | 1.91 µM (inactive) | 26.9 µM (inactive) | > 24.2 µM (inactive) | 0.114 µM (active) | 0.536 µM (active) | 0.407 µM (active) | 0.481 µM (active) | 1.85 µM (inactive) | < 0.01 µM (active) | 0.664 µM (active) | 0.0635 µM (active) | 0.615 µM (active) | 0.0419 µM (active) | 0.473 µM (active) | –
2 | CCOC(=O)/C(C(N)=O)=C(O)/C(O)=C(\Br)C(=O)c1ccccc1 | 15.1 µM (inactive) | 17.5 µM (inactive) | 17.9 µM (inactive) | 19.9 µM (inactive) | 18.2 µM (inactive) | 17.9 µM (inactive) | 19.6 µM (inactive) | 19 µM (inactive) | 24.8 µM (inactive) | 20.5 µM (inactive) | 0.979 µM (active) | 19.6 µM (inactive) | 22 µM (inactive) | 15.6 µM (inactive) | 25.8 µM (inactive) | 15.9 µM (inactive) | 1.72 µM (inactive) | > 100 µM (inactive) | 3.68 µM (inactive) | 2.99 µM (inactive)
3 | O=C(Cn1c(=O)oc2ccc(C(=O)c3ccc(F)cc3)cc21)c1ccc([N+](=O)[O-])cc1 | 31.8 µM (inactive) | 21 µM (inactive) | 45.3 µM (inactive) | 49.3 µM (inactive) | 34.3 µM (inactive) | 60.3 µM (inactive) | 28.9 µM (inactive) | 36.6 µM (inactive) | 32.8 µM (inactive) | 54.5 µM (inactive) | 19.1 µM (inactive) | 46.7 µM (inactive) | 15.9 µM (inactive) | 27.3 µM (inactive) | 33.8 µM (inactive) | 24.3 µM (inactive) | 18.8 µM (inactive) | 25.5 µM (inactive) | 12.6 µM (inactive) | 18.2 µM (inactive)
4 | Cc1cn(CC2=NCC(C)(C)N2)c(=O)[nH]c1=O | > 100 µM (inactive) | > 100 µM (inactive) | > 100 µM (inactive) | > 100 µM (inactive) | > 100 µM (inactive) | > 100 µM (inactive) | > 100 µM (inactive) | > 100 µM (inactive) | > 100 µM (inactive) | > 100 µM (inactive) | < 0.01 µM (active) | > 100 µM (inactive) | > 100 µM (inactive) | > 100 µM (inactive) | > 100 µM (inactive) | > 100 µM (inactive) | > 100 µM (inactive) | > 100 µM (inactive) | > 100 µM (inactive) | > 100 µM (inactive)
5 | COc1cc(/C=C2/SC(c3ccccc3)N(c3ccc(NC(C)=O)cc3)C2=O)cc(OC)c1OC (configuration not stated) | 54.1 µM (inactive) | 82.6 µM (inactive) | > 100 µM (inactive) | 37.3 µM (inactive) | > 100 µM (inactive) | > 100 µM (inactive) | > 100 µM (inactive) | > 100 µM (inactive) | > 100 µM (inactive) | > 100 µM (inactive) | – | > 100 µM (inactive) | > 100 µM (inactive) | 64.4 µM (inactive) | > 100 µM (inactive) | – | 28.1 µM (inactive) | > 100 µM (inactive) | 30.8 µM (inactive) | 31.3 µM (inactive)
6 | COC(CN(C(=O)c1ccccc1)C1CCC2(SCCS2)c2[nH]c3ccccc3c21)OC (configuration not stated) | 25.2 µM (inactive) | 12.9 µM (inactive) | 61.2 µM (inactive) | 7.24 µM (inactive) | 25.9 µM (inactive) | 14.4 µM (inactive) | 28.9 µM (inactive) | 32.7 µM (inactive) | 33.8 µM (inactive) | 27.7 µM (inactive) | 44.2 µM (inactive) | 93.3 µM (inactive) | 30.5 µM (inactive) | 20.3 µM (inactive) | 18.1 µM (inactive) | 40.6 µM (inactive) | 13.9 µM (inactive) | 46.6 µM (inactive) | 30.4 µM (inactive) | 14.6 µM (inactive)
7 | CCCCCCCCCCCCCCCC(=O)OCC1OC(OC)C(NC(=O)N(CCCl)N=O)C(O)C1O (configuration not stated) | 20.9 µM (inactive) | 15.1 µM (inactive) | 28.5 µM (inactive) | 17.4 µM (inactive) | 8.38 µM (inactive) | 19.7 µM (inactive) | 17.9 µM (inactive) | 22.8 µM (inactive) | 5.61 µM (inactive) | 8.04 µM (inactive) | 7.36 µM (inactive) | 19.5 µM (inactive) | 18.4 µM (inactive) | 16.7 µM (inactive) | 13.9 µM (inactive) | 18.1 µM (inactive) | 15.9 µM (inactive) | 29.6 µM (inactive) | 0.851 µM (active) | 6.32 µM (inactive)
8 | CCOc1cc(C2SCC(=O)N2c2nc3cc4sc(N5C(=O)CSC5c5ccc(O)c(OCC)c5)nc4cc3s2)ccc1O (configuration not stated) | > 68.9 µM (inactive) | 30.5 µM (inactive) | > 100 µM (inactive) | 27.7 µM (inactive) | 26.5 µM (inactive) | – | > 48.5 µM (inactive) | > 100 µM (inactive) | 2.37 µM (inactive) | > 100 µM (inactive) | 4.16 µM (inactive) | 17.8 µM (inactive) | > 100 µM (inactive) | > 100 µM (inactive) | 8.2 µM (inactive) | 15.9 µM (inactive) | 20.4 µM (inactive) | 48.6 µM (inactive) | 5.85 µM (inactive) | 4.61 µM (inactive)
9 | O=C1C(c2ccccc2)=C(c2ccccc2)C1(Cl)Cl | 2.86 µM (inactive) | 2.02 µM (inactive) | 3.78 µM (inactive) | 2.37 µM (inactive) | 2.84 µM (inactive) | 2.71 µM (inactive) | 3.28 µM (inactive) | 0.667 µM (active) | 5.9 µM (inactive) | 14.8 µM (inactive) | 1.01 µM (active) | 11.7 µM (inactive) | 5.19 µM (inactive) | 1.88 µM (inactive) | 3.2 µM (inactive) | 3.95 µM (inactive) | 2.12 µM (inactive) | 5.21 µM (inactive) | 2.04 µM (inactive) | 2.55 µM (inactive)
10 | COC(=O)C1(O)C(c2ccccc2)=NC2(C)CCCC21 (configuration not stated) | > 100 µM (inactive) | > 100 µM (inactive) | > 100 µM (inactive) | > 100 µM (inactive) | > 100 µM (inactive) | > 100 µM (inactive) | > 100 µM (inactive) | > 100 µM (inactive) | > 100 µM (inactive) | > 100 µM (inactive) | > 100 µM (inactive) | > 100 µM (inactive) | > 100 µM (inactive) | > 100 µM (inactive) | > 100 µM (inactive) | > 100 µM (inactive) | > 100 µM (inactive) | > 100 µM (inactive) | > 100 µM (inactive) | > 100 µM (inactive)
11 | C=CCSc1nc2ccccc2c(=O)n1Cc1ccco1 | > 100 µM (inactive) | > 100 µM (inactive) | > 100 µM (inactive) | 86.3 µM (inactive) | > 100 µM (inactive) | > 100 µM (inactive) | > 100 µM (inactive) | > 100 µM (inactive) | 73.5 µM (inactive) | > 100 µM (inactive) | – | > 100 µM (inactive) | > 100 µM (inactive) | 35.6 µM (inactive) | 39.4 µM (inactive) | > 100 µM (inactive) | 61.8 µM (inactive) | > 100 µM (inactive) | 47 µM (inactive) | –
12 | Cc1c(CNc2ccc(C(=O)NC(CC(=O)O)C(=O)O)cc2)ccc2nc(N)nc(N)c12 (configuration not stated) | 31 µM (inactive) | < 0.01 µM (active) | 1.7 µM (inactive) | 1.1 µM (active) | 0.0546 µM (active) | 0.605 µM (active) | > 100 µM (inactive) | 1.86 µM (inactive) | < 0.01 µM (active) | < 0.0103 µM (active) | < 0.01 µM (active) | < 0.01 µM (active) | < 0.01 µM (active) | 5.04 µM (inactive) | < 0.01 µM (active) | < 0.01 µM (active) | < 0.018 µM (active) | 0.219 µM (active) | < 0.0296 µM (active) | < 0.0157 µM (active)
13 | CCCC1NC(=O)C(CC(C)C)NC(=O)c2cccc(n2)C(=O)NC(CC(C)C)C(=O)NC(CCC)C(=O)NC(C(=O)OC)CCCCNC1=O (configuration not stated) | 21.7 µM (inactive) | 36.9 µM (inactive) | 25.6 µM (inactive) | 14.6 µM (inactive) | 32.4 µM (inactive) | 54.5 µM (inactive) | 18.7 µM (inactive) | 57.8 µM (inactive) | > 100 µM (inactive) | 81.3 µM (inactive) | 15.6 µM (inactive) | > 100 µM (inactive) | 11.1 µM (inactive) | 31.8 µM (inactive) | > 100 µM (inactive) | 31.1 µM (inactive) | – | > 100 µM (inactive) | 29 µM (inactive) | 18 µM (inactive)
14 | Cc1ccc2occ/c(=N\Nc3ccccc3)c2c1 | 29.5 µM (inactive) | 65.9 µM (inactive) | 62.2 µM (inactive) | 19.5 µM (inactive) | 66.1 µM (inactive) | > 100 µM (inactive) | 88.5 µM (inactive) | > 100 µM (inactive) | 56.9 µM (inactive) | 32.6 µM (inactive) | > 100 µM (inactive) | 37.8 µM (inactive) | > 100 µM (inactive) | 21.8 µM (inactive) | 39 µM (inactive) | 7.83 µM (inactive) | 84.7 µM (inactive) | 76.6 µM (inactive) | 37.8 µM (inactive) | –
